Reference: the Kinase Knowledgebase extract (Sharma et al. 2016)
Where “and” joins values, the source holds several entries; their conditions need not be identical. Equal values may be shown once.

target: CDK2 (UniProt P24941); assay: Enzyme Assay

IC50 | Structure (SMILES)
0.1 to 100 nM | CCc1cnn2c(NCc3ccc[n+]([O-])c3)cc(-c3ccccc3)nc12
0.1 to 100 nM | CC(C)Oc1ccc(CNc2cc(-c3ccccc3F)nc3c(Br)cnn23)c[n+]1[O-]
0.1 to 100 nM | OCC1(Nc2cc(NCc3cccnc3)n3ncc(Br)c3n2)CCCC1
0.1 to 100 nM | CCc1cnn2c(NCc3cccnc3)cc(-c3ccccc3)nc12
0.1 to 100 nM | Oc1cc(CNc2cc(C3CCCCC3)nc3c(Br)cnn23)ccn1
0.1 to 100 nM | [O-][n+]1cccc(CNc2cc(-c3ccccc3)nc3c(Br)cnn23)c1
0.1 to 100 nM | OCC[C@@H]1CCCN1c1cc(NCc2cccnc2)n2ncc(Br)c2n1
0.1 to 100 nM | CCc1cnn2c(NCc3ccc(OC)[n+]([O-])c3)cc(-c3ccccc3F)nc12
0.1 to 100 nM | [O-][n+]1cccc(CNc2cc(-c3ccco3)nc3c(Br)cnn23)c1
0.1 to 100 nM | Fc1ccccc1-c1cc(NCc2ccc3[nH]cnc3c2)n2ncc(Br)c2n1
0.1 to 100 nM | CCOc1ccc(CNc2cc(-c3ccccc3)nc3c(Br)cnn23)c[n+]1[O-]
0.1 to 100 nM | Brc1cnn2c(NCc3cccnc3)cc(-c3ccccc3)nc12
0.1 to 100 nM | [O-][n+]1cccc(CNc2cc(-c3ccc(Cl)cc3)nc3c(Br)cnn23)c1
0.1 to 100 nM | CNC(=O)c1ccc(CNc2cc(-c3ccccc3F)nc3c(Br)cnn23)cc1
0.1 to 100 nM | [O-][n+]1cccc(CNc2cc(-c3ccccc3F)nc3c(Br)cnn23)c1
0.1 to 100 nM | Brc1cnn2c(NCc3cccnc3)cc(-c3ccco3)nc12
0.1 to 100 nM | CCc1cnn2c(NCc3ccc[n+]([O-])c3)cc(-c3ccccc3F)nc12
0.1 to 100 nM | [O-][n+]1cccc(CNc2cc(-c3cccs3)nc3c(Br)cnn23)c1
0.1 to 100 nM | Brc1cnn2c(NCc3cccnc3)cc(C3CCCNC3)nc12 (centres undefined)
0.1 to 100 nM | COc1ccc(CNc2cc(-c3ccccc3F)nc3c(Br)cnn23)c[n+]1[O-]

The next lines start with the compound.

Structure (SMILES) | IC50
Brc1cnn2c(NCc3ccc4[nH]cnc4c3)cc(C3CCCCC3)nc12 | 0.1 to 100 nM
CC(C)(CO)Nc1cc(NCc2cccnc2)n2ncc(Br)c2n1 | 0.1 to 100 nM
[O-][n+]1cc(CNc2cc(-c3ccccc3)nc3c(Br)cnn23)ccc1OCC(F)(F)F | 0.1 to 100 nM
O=C(C1CC1)N1CCC(c2cc(NCc3cccnc3)n3ncc(Br)c3n2)CC1 | 0.1 to 100 nM
CC(C)(O)[C@@H]1CCCN1c1cc(NCc2ccc[n+]([O-])c2)n2ncc(Br)c2n1 | 0.1 to 100 nM
[O-][n+]1cccc(CNc2cc(-c3ccccc3Cl)nc3c(Br)cnn23)c1 | 0.1 to 100 nM
CC1(C)[C@@H]2[C@@H](CO)N(c3cc(NCc4cccnc4)n4ncc(Br)c4n3)C[C@@H]21 | 0.1 to 100 nM
CC(C)(O)[C@@H]1CCCN1c1cc(NCc2cccnc2)n2ncc(Br)c2n1 | 0.1 to 100 nM
Cc1ccccc1-c1cc(NCc2ccc[n+]([O-])c2)n2ncc(Br)c2n1 | 0.1 to 100 nM
CC(C)(O)[C@H]1CCCC[C@H]1c1cc(NCc2cccnc2)n2ncc(Br)c2n1 | 0.1 to 100 nM
[O-][n+]1cccc(CNc2cc(C3CCNCC3)nc3c(Br)cnn23)c1 | 0.1 to 100 nM
COc1c(Cl)cc(CNc2cc(-c3ccccc3)nc3c(Br)cnn23)c[n+]1[O-] | 0.1 to 100 nM
OC[C@H]1CCCC[C@H]1c1cc(NCc2cccnc2)n2ncc(Br)c2n1 | 0.1 to 100 nM
N[C@H]1CC[C@H](Nc2cc(NCc3cccnc3)n3ncc(Br)c3n2)CC1 | 0.1 to 100 nM
NC(=O)N1CCCC(c2cc(NCc3cccnc3)n3ncc(Br)c3n2)C1 (centres undefined) | 0.1 to 100 nM
CC(=O)N1CCC(c2cc(NCc3cccnc3)n3ncc(Br)c3n2)CC1 | 0.1 to 100 nM
[O-][n+]1cccc(CNc2cc(C3CCCCC3)nc3c(Br)cnn23)c1 | 0.1 to 100 nM
CC(C)[C@@H](CO)Nc1cc(NCc2ccc[n+]([O-])c2)n2ncc(Br)c2n1 | 0.1 to 100 nM
CS(=O)(=O)N1CCC(c2cc(NCc3cccnc3)n3ncc(Br)c3n2)CC1 | 0.1 to 100 nM
Fc1ccccc1-c1cc(NCc2ccncc2)n2ncc(Br)c2n1 | 32 nM and 24 nM
O=c1ccc(CNc2cc(-c3ccccc3F)nc3c(Br)cnn23)c[nH]1 | 0.1 to 100 nM
O=c1cc(CNc2cc(-c3ccccc3)nc3c(Br)cnn23)cc[nH]1 | 0.1 to 100 nM

Structure (SMILES) | IC50
[O-][n+]1cccc(CNc2cc(N3CCC[C@H]3CO)nc3c(Br)cnn23)c1 | 0.1 to 100 nM
CCc1cnn2c(NCc3ccc[n+]([O-])c3)cc(C3CCCCC3)nc12 | 0.1 to 100 nM
OC[C@H]1CCCC[C@H]1Nc1cc(NCc2cccnc2)n2ncc(Br)c2n1 | 0.1 to 100 nM
Nc1ncc(CNc2cc(C3CCCNC3)nc3c(Br)cnn23)cn1 (centres undefined) | 0.1 to 100 nM
O=c1ccc(CNc2cc(-c3ccccc3)nc3c(Br)cnn23)c[nH]1 | 0.1 to 100 nM
Brc1cnn2c(NCc3cccnc3)cc(C3CCOCC3)nc12 | 0.1 to 100 nM
CN1CCN(c2cc(NCc3cccnc3)n3ncc(Br)c3n2)CC1 | 140 nM
CS(=O)(=O)N1CCCC(c2cc(NCc3cccnc3)n3ncc(Br)c3n2)C1 (centres undefined) | 0.1 to 100 nM
Brc1cnn2c(NCc3ccc(-c4csnn4)cc3)cc(C3CCNCC3)nc12 | 0.1 to 100 nM
CC(=O)N1CCCC(c2cc(NCc3cccnc3)n3ncc(Br)c3n2)C1 (centres undefined) | 0.1 to 100 nM
Brc1cnn2c(NCc3ccc4[nH]cnc4c3)cc(C3CCNCC3)nc12 | 0.1 to 100 nM
Brc1cnn2c(NCc3cccnc3)cc(C3CCCCC3)nc12 | 0.1 to 100 nM
[O-][n+]1cccc(CNc2cc(C3CCOCC3)nc3c(Br)cnn23)c1 | 0.1 to 100 nM
NC(=O)N1CCC(c2cc(NCc3cccnc3)n3ncc(Br)c3n2)CC1 | 0.1 to 100 nM
CC(C)c1cc(NCc2ccc[n+]([O-])c2)n2ncc(Br)c2n1 | 0.1 to 100 nM
OCC1CCCCN1c1cc(NCc2cccnc2)n2ncc(Br)c2n1 (centres undefined) | 0.1 to 100 nM
OCCC1CCCCN1c1cc(NCc2cccnc2)n2ncc(Br)c2n1 (centres undefined) | 0.1 to 100 nM
CC(C)[C@H](CO)Nc1cc(NCc2ccc[n+]([O-])c2)n2ncc(Br)c2n1 | 0.1 to 100 nM
O=c1ccc(CNc2cc(C3CCCCC3)nc3c(Br)cnn23)c[nH]1 | 0.1 to 100 nM
CCc1cnn2c(NCc3ccnc(O)c3)cc(-c3ccccc3)nc12 | 0.1 to 100 nM
Brc1cnn2c(NCc3cccnc3)cc(C3CCNCC3)nc12 | 0.1 to 100 nM
Cn1cnc2cc(CNc3cc(-c4ccccc4)nc4c(Br)cnn34)ccc21 | 0.1 to 100 nM
